In article PMC9149975, “The diaryl-imidazopyridazine anti-plasmodial compound, MMV652103, exhibits anti-breast cancer activity” (EXCLI Journal, 2022):

How the values were obtained:
[1] = test system: MCF7 cells; test: GSH-Glo Glutathione assay; format: cell-based, human; conditions: MCF7, 24 h; MMV652103 ½ IC50 and IC50, doxorubicin IC50 (9.84 nM)
Procedure: The increase in ROS levels results in a decrease in the levels of antioxidants. To confirm the presence of intracellular ROS, the levels of the antioxidant, glutathione (GSH), was measured using the GSH-Glo™ Glutathione assay kit (V6911, Promega, Wisconsin, USA), according to the manufacturer's instructions. Briefly, cells (2500-4500 cells per well) were seeded in opaque 96 well plates. Cells were treated for 24 h with either vehicle or MMV652103. Thereafter, the cell culture medium was removed and 100 μl of 1X GSH-Glo™ Reagent (prepared using Luciferin-NT substrate and Glutathione S-Transferase each diluted 1:100 in GSH-Glo™ Reaction Buffer) was added to each well. The plate was then mixed briefly on a shaker and incubated for 10 min at RT. Thereafter, 100 μl reconstituted Luciferin Detection Reagent was added to each well. The plate was then incubated for 15 min RT in order to stabilize the luminescence signal. The plate was read using the GloMax® Explorer Multimode plate reader (Promega, Wisconsin, USA).

[2] = test system: MCF7 tumors; test: Chick embryo CAM xenograft: tumor weight and metastasis; format: in vivo; conditions: 25 μM, every 48 h E10-E16, weighed E18
Procedure: All studies and procedures were conducted with prior approval of the Animal Ethics Committee of the University of Cape Town (FHS AEC REF NO:016/025) in accordance with the South African National Standard (SANS 10386:008) for the Care and Use of Animals for Scientific Purposes (SABS, 2015[71]), and guidelines from the Department of Health (2015[21]). Fertilized White Leghorn eggs were incubated at 37.5 °C with 50 % relative humidity for 9 days. At stage E9, the chorioallantoic membrane (CAM) was dropped by drilling a small hole through the eggshell into the air sac and a 1 cm^2 window was cut in the eggshell above the CAM. Cultured MCF7 cells were detached with trypsin, washed with complete medium and suspended in PBS. An inoculum of MCF7 cells was grafted onto the CAM of each E9 egg (21 eggs were used for each condition) and at E10, tumors were detectable. MCF7 tumors were treated every 48 h (E10, E12, E14, E16) by dropping 100 μl of vehicle (0.25 % DMSO in PBS), a reference compound (Paclitaxel), or MMV652103, onto the tumour. At E18 the upper portion of the CAM was removed, transferred to PBS and the tumors cut away from normal CAM tissue and weighed. A one-way ANOVA analysis with post-tests was done. In parallel, a 1 cm^2 portion of the lower CAM was collected to evaluate the number of metastatic cells. The relative amount of metastasis was calculated as follows: Tumor cells were grafted onto the upper chorioallantoic membrane (CAM) and during metastasis the cells invade the epithelium and basement membrane of the upper CAM and move through connective tissue into the vasculature into the lower CAM. The cells in the lower CAM are then harvested and genomic DNA is extracted and analyzed by qPCR with specific primers for Alu sequences which are only found in higher primates i.e. it allows for the distinction between human tumor cells and the host chick cells. Statistical analysis was directly performed on data from the Bio-Rad CFX Manager 3.1 software.

Row | Structure (SMILES) | levels of GSH [1] | tumor weight reduction [2]
1 | COc1cccc2c1C(=O)c1c(O)c3c(c(O)c1C2=O)C[C@@](O)(C(=O)CO)C[C@@H]3O[C@H]1C[C@H](N)[C@H](O)[C@H](C)O1 [Doxorubicin, reference compound] | significant decrease | –
2 | CC(=O)O[C@H]1C(=O)[C@@]2(C)[C@H]([C@H](OC(=O)c3ccccc3)[C@]3(O)C[C@H](OC(=O)[C@H](O)[C@@H](NC(=O)c4ccccc4)c4ccccc4)C(C)=C1C3(C)C)[C@]1(OC(C)=O)CO[C@@H]1C[C@@H]2O [Paclitaxel, reference compound] | – | 28.22%
